Data from patent publication US20040266885A1, “Wood preservative compositions” (priority 2001, published 2004).
Values joined by “and” are separate entries in the source; they are usually repeats but may differ in a detail not shown here. Equal entries are not always repeated. “Also recorded” adds a separate entry of the source.

System: C. formosanus
Assay: Laboratory termite test, modified ASTM 3345-74, soil/sand culture, NaOH carrier, blocks not leached; for Termite Attack Rating: key: Score 0: No attack; Score 1: Attempted attack; Score 2: Slight attack; Score 3: Average attack; Score 4: Strong attack
Format: in vivo
Details: for termite survival / mortality at the end of the test period / Tunneling Activity / Visible Mortality / prevention of termite attack / restriction of termite damage: 4 weeks; for prevention of termite attack / restriction of termite damage: all concentrations used (1-10%); for Mean Rating (termite attack): mean of 4 specimens; for Mean Rating (termite attack) / Termite Attack Rating: 4 weeks soil/sand culture; for Termite Attack Rating: single specimen; for repellent effect (soil covering of test specimens): specimens treated with 5, 7 and 10% solutions only partially soil covered
Description: A further experiment was undertaken according to the modified ASTM 3345-74 test detailed in Example 2 with the following 6 changes to the protocol:
1. The solutions tested were as follows:
2. The incubation substrate was a soil/sand mixture (1:1) to which had been added 75 ml of de-ionised water. This substrate was chosen as being more representative of the laboratory conditions under which the wild caught termites (C. formosanus) were maintained.
3. The treated timber samples were positioned on plastic mesh on top of the soil substrate. This method of placement is that used in European Standard EN 117 and is more representative of the feeding conditions of the wild caught termites maintained in the laboratory.
4. 250 termites were used in each incubation vessel.
5. The wood block specimens were not subjected to a leaching process.
6. Evidence of termite tunneling activity and mortality was determined at completion of the incubation period only (4 weeks) and no examinations were undertaken for surface activity.

## Oc1c(Br)cc(Cc2cc(Br)c(O)c(Br)c2)cc1Br [TBBF]
  termiticidal and termite repellent activity (conclusion): significant termiticidal and termite repellent activity
  termite survival / mortality at the end of the test period: the majority of the termites were killed by the end of the test period
  prevention of termite attack / restriction of termite damage: significant attack was prevented by all concentrations; also recorded: a very significant effect in restricting termite damage
  repellent effect (soil covering of test specimens): a repellent effect
Solution conc. 1%
  Tunneling Activity: Yes
  Visible Mortality: 34-66%
  Mean Rating (termite attack): 1.50
  Termite Attack Rating: 3 and 1
Solution conc. 3%
  Tunneling Activity: Yes
  Visible Mortality: 34-66%
  Mean Rating (termite attack): 0.75
  Termite Attack Rating: 0 and 1
Solution conc. 5%
  Tunneling Activity: Yes
  Visible Mortality: 67-100%
  Mean Rating (termite attack): 0.5
  Termite Attack Rating: 0 and 1
Solution conc. 7%
  Tunneling Activity: Yes
  Visible Mortality: 67-100%
  Mean Rating (termite attack): 0.75
  Termite Attack Rating: 1 and 0
Solution conc. 10%
  Tunneling Activity: Yes
  Visible Mortality: 67-100%
  Mean Rating (termite attack): 0.5
  Termite Attack Rating: 1 and 0
Mean loading, solution concentration 1%, not leached
  toxic value, lower (concentration at which the wood is no longer sufficiently protected): 6.78 kg/m^3
Mean loading, solution concentration 3% (TBBF) or 1%, not leached
  toxic value, upper (lowest concentration which protects the wood): 20.53 kg/m^3

## O=S(=O)(c1cc(Br)c(O)c(Br)c1)c1cc(Br)c(O)c(Br)c1 [TBBS]
  termiticidal and termite repellent activity (conclusion): significant termiticidal and termite repellent activity
  termite survival / mortality at the end of the test period: significant termite mortality by the end of the test period
  prevention of termite attack / restriction of termite damage: significant attack was prevented by all concentrations; also recorded: a very significant effect in restricting termite damage
  repellent effect (soil covering of test specimens): a repellent effect was noted
Solution conc. 1%
  Tunneling Activity: Yes
  Visible Mortality: 67-100%
  Mean Rating (termite attack): 1.00
  Termite Attack Rating: 1
Solution conc. 3%
  Tunneling Activity: Yes
  Visible Mortality: 34-66% and 67-100%
  Mean Rating (termite attack): 0.5
  Termite Attack Rating: 1 and 0
Solution conc. 5%
  Tunneling Activity: Yes
  Visible Mortality: 67-100%
  Mean Rating (termite attack): 1.00
  Termite Attack Rating: 1
Solution conc. 7%
  Tunneling Activity: Yes
  Visible Mortality: 67-100% and 100%
  Mean Rating (termite attack): 0.75
  Termite Attack Rating: 1 and 0
Solution conc. 10%
  Tunneling Activity: Yes
  Visible Mortality: 34-66% and 67-100%
  Mean Rating (termite attack): 0.25
  Termite Attack Rating: 0 and 1
